In BindingDB's records for doi:10.1016/j.chembiol.2005.02.004 (Purdue University, 2005):
Numbered stars: 1 amine (or outer) side, 2 acyl side, 3 side chain; on linkers, the order of the positions; unused ones are H or OH. Bridge positions count the residues as written; N and C are the ends. Square brackets hold non-standard residues; d marks the D form. Peptide text beside a SMILES is read from it. I, II: the chains in the order shown. * marks the point of attachment. C16 diacid = O=C(O)CCCCCCCCCCCCCCC(=O)*; X1 = NC(O)C[C@H](N[*:1])C(=O)[*:2]

Target: T1, Capsid scaffolding protein (Human herpesvirus 1 (strain 17), UniProt P10210)
T1 sequence (P10210 whole entry): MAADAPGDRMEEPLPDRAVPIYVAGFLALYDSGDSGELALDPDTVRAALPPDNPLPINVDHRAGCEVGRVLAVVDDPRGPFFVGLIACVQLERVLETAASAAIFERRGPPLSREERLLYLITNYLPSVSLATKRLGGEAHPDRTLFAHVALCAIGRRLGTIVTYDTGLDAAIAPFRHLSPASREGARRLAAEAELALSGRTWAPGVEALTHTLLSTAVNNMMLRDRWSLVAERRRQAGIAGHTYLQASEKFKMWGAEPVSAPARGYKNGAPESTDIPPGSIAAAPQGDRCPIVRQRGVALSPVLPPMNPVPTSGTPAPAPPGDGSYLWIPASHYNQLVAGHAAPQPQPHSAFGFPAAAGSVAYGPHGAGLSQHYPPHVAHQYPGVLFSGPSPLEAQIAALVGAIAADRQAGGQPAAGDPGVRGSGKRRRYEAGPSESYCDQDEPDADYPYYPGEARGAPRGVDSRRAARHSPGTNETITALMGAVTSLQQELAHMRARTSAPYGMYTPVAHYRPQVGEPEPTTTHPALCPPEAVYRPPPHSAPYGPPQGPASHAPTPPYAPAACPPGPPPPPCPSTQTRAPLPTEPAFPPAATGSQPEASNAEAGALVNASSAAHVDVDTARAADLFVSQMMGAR
Test: Competitive Assay
Conditions: pH 5.52
From the text: The competitive assay requires two inhibitors to act by a purely competitive mechanism, whereas the binding site of on the inhibitors has been established.

Point of comparison: `CC[C@H](C)[C@H](NC(=O)[C@H](CCC(N)=O)NC(=O)[C@@H]1CCCN1C(=O)CCCCCCCCCCCCCCC(=O)N[C@@H](CO)C(=O)N[C@H](C(=O)N[C@H](C(=O)N[C@@H](CC(N)O)C(=O)N[C@@H](Cc1ccccc1)C(=O)O)C(C)C)[C@@H](C)O)C(=O)N[C@H](C(=O)N[C@@H](CC(C)C)C(=O)N[C@@H](Cc1c[nH]c2ccccc12)C(=O)O)[C@@H](C)O` (stereo partly specified) [Pepstatin analog, 1] (I: PQITLW-OH / II: STV[X1]F-OH; linker I:N-II:N via C16 diacid), IC50 0.35 µM. Against it:
- CC(C)C[C@H](NC(=O)[C@@H](NC(=O)CCCCCCCCCCCCCCC(=O)N[C@H](CC(N)=O)C(=O)N[C@H](Cc1ccccc1)C(=O)O)C(C)O)C(=O)N[C@@H](Cc1ccccc1)C(N)=O (stereo partly specified) [Pepstatin analog, 2] — 17-fold higher, 5.9 µM
- CC(C)C[C@H](NC(=O)[C@@H](NC(=O)CCCCCCCCCCCCCCC(=O)N[C@H](CC(N)=O)C(=O)N[C@@H](Cc1ccccc1)C(=O)O)C(C)O)C(=O)NCCc1ccccc1 (stereo partly specified) [Pepstatin analog, 3] — 17-fold higher, 5.8 µM
- COc1cccc(CCNC(=O)[C@@H](CC(C)C)NC(=O)[C@H](NC(=O)CCCCCCCCCCCCCCC(=O)N[C@H](CC(N)=O)C(=O)N[C@@H](Cc2ccccc2)C(=O)O)C(C)O)c1 (stereo partly specified) [Pepstatin analog, 5] — 14-fold higher, 4.9 µM
- CC(C)C[C@@H](NC(=O)[C@H](NC(=O)CCCCCCCCCCCCCCC(=O)N[C@H](CC(N)=O)C(=O)N[C@@H](Cc1ccccc1)C(=O)O)C(C)O)C(=O)NCCc1cccc(O)c1 (stereo partly specified) [Pepstatin analog, 4] — 13-fold higher, 4.4 µM

Point of comparison: `CC(C)C[C@H](NC(=O)[C@@H](NC(=O)CCCCCCCCCCCCCCC(=O)N[C@H](CC(N)=O)C(=O)N[C@H](Cc1ccccc1)C(=O)O)C(C)O)C(=O)N[C@@H](Cc1ccccc1)C(N)=O` (stereo partly specified) [Pepstatin analog, 2], Ki 3 µM. Against it:
- COc1cccc(CCNC(=O)[C@@H](CC(C)C)NC(=O)[C@H](NC(=O)CCCCCCCCCCCCCCC(=O)N[C@H](CC(N)=O)C(=O)N[C@@H](Cc2ccccc2)C(=O)O)C(C)O)c1 (stereo partly specified) [Pepstatin analog, 5] — 2.3-fold lower, 1.29 µM
- CC[C@H](C)[C@H](NC(=O)[C@H](CCC(N)=O)NC(=O)[C@@H]1CCCN1C(=O)CCCCCCCCCCCCCCC(=O)N[C@@H](CO)C(=O)N[C@H](C(=O)N[C@H](C(=O)N[C@@H](CC(N)O)C(=O)N[C@@H](Cc1ccccc1)C(=O)O)C(C)C)[C@@H](C)O)C(=O)N[C@H](C(=O)N[C@@H](CC(C)C)C(=O)N[C@@H](Cc1c[nH]c2ccccc12)C(=O)O)[C@@H](C)O (stereo partly specified) [Pepstatin analog, 1] (I: PQITLW-OH / II: STV[X1]F-OH; linker I:N-II:N via C16 diacid) — 14-fold lower, 0.22 µM
- CC(C)C[C@@H](NC(=O)[C@H](NC(=O)CCCCCCCCCCCCCCC(=O)N[C@H](CC(N)=O)C(=O)N[C@@H](Cc1ccccc1)C(=O)O)C(C)O)C(=O)NCCc1cccc(O)c1 (stereo partly specified) [Pepstatin analog, 4] — 2.7-fold lower, 1.13 µM

Target: T1, Capsid scaffolding protein
Test: Zhang-Poorman Assay
Conditions: pH 5.52

Point of comparison: `CC(C)C[C@@H](NC(=O)[C@H](NC(=O)CCCCCCCCCCCCCCC(=O)N[C@H](CC(N)=O)C(=O)N[C@@H](Cc1ccccc1)C(=O)O)C(C)O)C(=O)NCCc1ccc(N)cc1` (stereo partly specified) [Pepstatin analog, 10], IC50 2.5 µM. Against it:
- CC(C)C[C@@H](NC(=O)[C@H](NC(=O)CCCCCCCCCCCCCCC(=O)N[C@H](CC(N)=O)C(=O)N[C@@H](Cc1ccccc1)C(=O)O)C(C)O)C(=O)NCCc1ccc(O)c(O)c1 (stereo partly specified) [Pepstatin analog, 8] — within 1.5-fold, 2.9 µM
- CC(C)C[C@@H](NC(=O)[C@H](NC(=O)CCCCCCCCCCCCCCC(=O)N[C@H](CC(N)=O)C(=O)N[C@@H](Cc1ccccc1)C(=O)O)C(C)O)C(=O)NCCc1ccc(O)cc1 (stereo partly specified) [Pepstatin analog, 6] — 2.3-fold higher, 5.8 µM
- CC(C)C[C@@H](NC(=O)[C@H](NC(=O)CCCCCCCCCCCCCCC(=O)N[C@H](CC(N)=O)C(=O)N[C@@H](Cc1ccccc1)C(=O)O)C(C)O)C(=O)NCCc1ccc(Oc2ccccc2)cc1 (stereo partly specified) [Pepstatin analog, 11] — 3.4-fold lower, 0.73 µM
- CC(C)C[C@@H](NC(=O)[C@H](NC(=O)CCCCCCCCCCCCCCC(=O)N[C@H](CC(N)=O)C(=O)N[C@@H](Cc1ccccc1)C(=O)O)C(C)O)C(=O)NCCc1ccc(Oc2ccc(O)cc2)cc1 (stereo partly specified) [Pepstatin analog, 12] — 6.9-fold lower, 0.36 µM
- COc1ccc(CCNC(=O)[C@@H](CC(C)C)NC(=O)[C@H](NC(=O)CCCCCCCCCCCCCCC(=O)N[C@H](CC(N)=O)C(=O)N[C@@H](Cc2ccccc2)C(=O)O)C(C)O)cc1OC (stereo partly specified) [Pepstatin analog, 9] — 1.7-fold higher, 4.3 µM
- COc1ccc(CCNC(=O)[C@@H](CC(C)C)NC(=O)[C@H](NC(=O)CCCCCCCCCCCCCCC(=O)N[C@H](CC(N)=O)C(=O)N[C@@H](Cc2ccccc2)C(=O)O)C(C)O)cc1 (stereo partly specified) [Pepstatin analog, 7] — within 1.5-fold, 2.7 µM

Point of comparison: `COc1ccc(CCNC(=O)[C@@H](CC(C)C)NC(=O)[C@H](NC(=O)CCCCCCCCCCCCCCC(=O)N[C@H](CC(N)=O)C(=O)N[C@@H](Cc2ccccc2)C(=O)O)C(C)O)cc1` (stereo partly specified) [Pepstatin analog, 7], Ki 0.72 µM. Against it:
- CC(C)C[C@@H](NC(=O)[C@H](NC(=O)CCCCCCCCCCCCCCC(=O)N[C@H](CC(N)=O)C(=O)N[C@@H](Cc1ccccc1)C(=O)O)C(C)O)C(=O)NCCc1ccc(O)c(O)c1 (stereo partly specified) [Pepstatin analog, 8] — within 1.5-fold, 0.6 µM
- CC(C)C[C@@H](NC(=O)[C@H](NC(=O)CCCCCCCCCCCCCCC(=O)N[C@H](CC(N)=O)C(=O)N[C@@H](Cc1ccccc1)C(=O)O)C(C)O)C(=O)NCCc1ccc(Oc2ccccc2)cc1 (stereo partly specified) [Pepstatin analog, 11] — 4.1-fold lower, 0.175 µM
- CC(C)C[C@@H](NC(=O)[C@H](NC(=O)CCCCCCCCCCCCCCC(=O)N[C@H](CC(N)=O)C(=O)N[C@@H](Cc1ccccc1)C(=O)O)C(C)O)C(=O)NCCc1ccc(Oc2ccc(O)cc2)cc1 (stereo partly specified) [Pepstatin analog, 12] — 7.5-fold lower, 0.096 µM
- CC(C)C[C@@H](NC(=O)[C@H](NC(=O)CCCCCCCCCCCCCCC(=O)N[C@H](CC(N)=O)C(=O)N[C@@H](Cc1ccccc1)C(=O)O)C(C)O)C(=O)NCCc1ccc(N)cc1 (stereo partly specified) [Pepstatin analog, 10] — within 1.5-fold, 0.65 µM
